target: TAAR1 (Mus musculus, UniProt Q923Y8); test: TAAR1 radioligand binding, membranes of stably transfected HEK293 cells (mouse); conditions: not given
Outline: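 Competition binding on membranes from HEK293 cells stably expressing the TAAR1 species ortholog, in HEPES-NaOH pH 7.0 with 10 mM MgCl2 and 2 mM CaCl2, 30 min at 4° C with [3H]-rac-2-(1,2,3,4-tetrahydro-1-naphthyl)-2-imidazoline. Competitors 10 pM–30 μM, duplicates; non-specific binding with 10 μM unlabelled ligand; filtration and scintillation counting.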

| Structure (SMILES) | Ki [µM] |
| --- | --- |
| NC1=NC(c2ccc(Cl)cc2C(F)(F)F)CO1 (racemic) [Example 226, (RS)-4-(4-Chloro-2-trifluoromethyl-phenyl)-4,5-dihydro-oxazol-2-ylamine] | 0.0054 |
| NC1=NC(c2cccc(Cl)c2)CO1 (racemic) [Example 185, (RS)-4-(3-Chloro-phenyl)-4,5-dihydro-oxazol-2-ylamine] | 0.005 |
| NC1=NC(c2cc(Cl)cc(Cl)c2)CO1 (racemic) [Example 189, (RS)-4-(3,5-Dichloro-phenyl)-4,5-dihydro-oxazol-2-ylamine] | 0.0008 |
| NC1=NC(c2ccc(F)cc2C(F)(F)F)CO1 (racemic) [Example 224, (RS)-4-(4-Fluoro-2-trifluoromethyl-phenyl)-4,5-dihydro-oxazol-2-ylamine] | 0.0063 |
| Cc1cc(F)ccc1C1COC(N)=N1 (racemic) [Example 337, (RS)-4-(4-Fluoro-2-methyl-phenyl)-4,5-dihydro-oxazol-2-ylamine] | 0.0034 |
| NC1=NC(c2cccc(F)c2C(F)(F)F)CO1 (racemic) [Example 371, (RS)-4-(3-Fluoro-2-trifluoromethyl-phenyl)-4,5-dihydro-oxazol-2-ylamine] | 0.0096 |
| Cc1ccc(F)cc1C1COC(N)=N1 (racemic) [Example 250, (RS)-4-(5-Fluoro-2-methyl-phenyl)-4,5-dihydro-oxazol-2-ylamine] | 0.0022 |
| Cc1cc(C2(C)COC(N)=N2)ccc1Cl (racemic) [Example 263, (RS)-4-(4-Chloro-3-methyl-phenyl)-4-methyl-4,5-dihydro-oxazol-2-ylamine] | 0.0023 |
| NC1=NC(c2ccc(Br)cc2F)CO1 (racemic) [Example 349, (RS)-4-(4-Bromo-2-fluoro-phenyl)-4,5-dihydro-oxazol-2-ylamine] | 0.0023 |
| NC1=NC(c2cccc3ccccc23)CO1 (racemic) [Example 34, (RS)-4-Naphthalen-1-yl-4,5-dihydro-oxazol-2-ylamine] | 0.0011 |
| NC1=NC(c2ccc(Cl)cc2C2CC2)CO1 (racemic) [Example 359, (RS)-4-(4-Chloro-2-cyclopropyl-phenyl)-4,5-dihydro-oxazol-2-ylamine] | 0.0021 |
| Cc1cccc(CC[C@H]2COC(N)=N2)c1 [Example 115, (S)-4-(2-m-Tolyl-ethyl)-4,5-dihydro-oxazol-2-ylamine] | 0.001 |
| NC1=N[C@@H](CCc2ccc(F)cc2Cl)CO1 [Example 139, (S)-4-[2-(2-Chloro-4-fluoro-phenyl)-ethyl]-4,5-dihydro-oxazol-2-ylamine] | 0.0019 |
| Cc1ccccc1[C@H]1COC(N)=N1 [39a (S), (S)-4-o-Tolyl-4,5-dihydro-oxazol-2-ylamine] | 0.0025 |
| NC1=NC(c2ccc(F)c(F)c2F)CO1 (racemic) [Example 17, (RS)-4-(2,3,4-Trifluoro-phenyl)-4,5-dihydro-oxazol-2-ylamine] | 0.0057 |
| CC1(c2cc(Cl)ccc2Cl)COC(N)=N1 (racemic) [Example 299, (RS)-4-(2,5-Dichloro-phenyl)-4-methyl-4,5-dihydro-oxazol-2-ylamine] | 0.0042 |

same assay, conditions: mouse/rat; cell not marked 'rat'; radioligand [3H]-rac-2-(1,2,3,4-tetrahydro-1-naphthyl)-2-imidazoline, 4° C.; read-out: Ki (μM) mouse/rat

| Structure (SMILES) | Ki [µM] |
| --- | --- |
| COc1ccc([C@H]2COC(N)=N2)cc1Cl [Example 131, (S)-4-(3-Chloro-4-methoxy-phenyl)-4,5-dihydro-oxazol-2-ylamine] | 0.0024 |
| NC1=N[C@@H](CCc2ccccc2Cl)CO1 [Example 267, (S)-4-[2-(2-Chloro-phenyl)-ethyl]-4,5-dihydro-oxazol-2-ylamine] | 0.0011 |
| NC1=N[C@@H](CCc2cccc(C(F)(F)F)c2)CO1 [Example 120, (S)-4-[2-(3-Trifluoromethyl-phenyl)-ethyl]-4,5-dihydro-oxazol-2-ylamine] | 0.0014 |
| CCC(C[C@H]1COC(N)=N1)c1cc(F)cc(Cl)c1 (stereo partly drawn) [Example 357, (S)-4-[2-(3-Chloro-5-fluoro-phenyl)-butyl]-4,5-dihydro-oxazol-2-ylamine] | 0.0068 |
| NC1=N[C@@H](c2ccc(Cl)cc2Cl)CO1 [Example 296, (+)-(S)-4-(2,4-Dichloro-phenyl)-4,5-dihydro-oxazol-2-ylamine] | 0.0004 |
| NC1=N[C@@H](CC2(c3ccc(Cl)cc3)CC2)CO1 [Example 257, (S)-4-[1-(4-Chloro-phenyl)-cyclopropylmethyl]-4,5-dihydro-oxazol-2-ylamine] | 0.0074 |
| NC1=N[C@@H](COc2cccc(Cl)c2)CO1 [Example 343, (S)-4-(3-Chloro-phenoxymethyl)-4,5-dihydro-oxazol-2-ylamine] | 0.0028 |
| C[C@]1(c2cccc(C(F)(F)F)c2)COC(N)=N1 [Example 219, (S)-4-Methyl-4-(3-trifluoromethyl-phenyl)-4,5-dihydro-oxazol-2-ylamine] | 0.0009 |
| CC(C[C@H]1COC(N)=N1)c1cccc(C(F)(F)F)c1 (stereo partly drawn) [Example 193, (S)-4-[2-(3-Trifluoromethyl-phenyl)-propyl]-4,5-dihydro-oxazol-2-ylamine] | 0.0043 |
| CC[C@]1(c2ccc(Cl)c(Cl)c2)COC(N)=N1 [Example 328, (S)-4-(3,4-Dichloro-phenyl)-4-ethyl-4,5-dihydro-oxazol-2-ylamine] | 0.0052 |
| NC1=N[C@@H](CSc2ccc(Cl)cc2)CO1 [Example 370, (R)-4-(4-Chloro-phenylsulfanylmethyl)-4,5-dihydro-oxazol-2-ylamine] | 0.0037 |
| CCC(C[C@H]1COC(N)=N1)c1ccccc1F (stereo partly drawn) [Example 223, (S)-4-[2-(2-Fluoro-phenyl)-butyl]-4,5-dihydro-oxazol-2-ylamine] | 0.0059 |
| NC1=N[C@@H](CCc2ccc(OC(F)(F)F)c(Cl)c2)CO1 [Example 150, (S)-4-[2-(3-Chloro-4-trifluoromethoxy-phenyl)-ethyl]-4,5-dihydro-oxazol-2-ylamine] | 0.0009 |
| Cc1ccc(F)c(CC2COC(N)=N2)c1 (racemic) [Example 73, (RS)-4-(2-Fluoro-5-methyl-benzyl)-4,5-dihydro-oxazol-2-ylamine] | 0.0089 |
| NC1=N[C@@H](CCc2ccc(Cl)c(C(F)(F)F)c2)CO1 [Example 144, (S)-4-[2-(4-Chloro-3-trifluoromethyl-phenyl)-ethyl]-4,5-dihydro-oxazol-2-ylamine] | 0.0012 |
| Cc1cc(CC[C@H]2COC(N)=N2)ccc1F [Example 140, (S)-4-[2-(4-Fluoro-3-methyl-phenyl)-ethyl]-4,5-dihydro-oxazol-2-ylamine] | 0.001 |
| NC1=N[C@@H](CCc2ccc(F)cc2F)CO1 [Example 88] | 0.001 |
| NC1=N[C@@H](c2cc(Cl)ccc2C(F)(F)F)CO1 [Example 341, (+)-(S)-4-(5-Chloro-2-trifluoromethyl-phenyl)-4,5-dihydro-oxazol-2-ylamine] | 0.0046 |

| Structure (SMILES) | Ki [µM] |
| --- | --- |
| Cc1ccc(CC[C@H]2COC(N)=N2)cc1 [Example 116, (S)-4-(2-p-Tolyl-ethyl)-4,5-dihydro-oxazol-2-ylamine] | 0.0012 |
| C[C@]1(CCc2ccccc2)COC(N)=N1 [Example 81 (S), (S)-4-Methyl-4-phenethyl-4,5-dihydro-oxazol-2-ylamine] | 0.0064 |
| CCC(C[C@H]1COC(N)=N1)c1cccc(C(F)(F)F)c1 (stereo partly drawn) [Example 194, (S)-4-[2-(3-Trifluoromethyl-phenyl)-butyl]-4,5-dihydro-oxazol-2-ylamine] | 0.0073 |
| NC1=N[C@@H](CCc2ccc(Cl)cc2F)CO1 [Example 132, (S)-4-[2-(4-Chloro-2-fluoro-phenyl)-ethyl]-4,5-dihydro-oxazol-2-ylamine] | 0.0007 |
| NC1=N[C@@H](CCc2c(F)cccc2Cl)CO1 [Example 303, (S)-4-[2-(2-Chloro-6-fluoro-phenyl)-ethyl]-4,5-dihydro-oxazol-2-ylamine] | 0.0011 |
| C[C@]1(c2ccc(F)cc2F)COC(N)=N1 [Example 206, (S)-4-(2,4-Difluoro-phenyl)-4-methyl-4,5-dihydro-oxazol-2-ylamine] | 0.0032 |
| NC1=N[C@@H](CCc2ccc(C(F)(F)F)c(F)c2)CO1 [Example 137, (S)-4-[2-(3-Fluoro-4-trifluoromethyl-phenyl)-ethyl]-4,5-dihydro-oxazol-2-ylamine] | 0.0025 |
| Cc1ccccc1CC[C@H]1COC(N)=N1 [Example 114, (S)-4-(2-o-Tolyl-ethyl)-4,5-dihydro-oxazol-2-ylamine] | 0.0021 |
| NC1=N[C@@H](c2ccccc2C(F)(F)F)CO1 [Example 122, (S)-4-(2-Trifluoromethyl-phenyl)-4,5-dihydro-oxazol-2-ylamine] | 0.0034 |
| NC1=N[C@@H](c2ccc(F)c(F)c2F)CO1 [Example 301, (+)-(S)-4-(2,3,4-Trifluoro-phenyl)-4,5-dihydro-oxazol-2-ylamine] | 0.0023 |
| NC1=N[C@@H](c2cccc(Br)c2)CO1 [Example 198, (+)-(S)-4-(3-Bromo-phenyl)-4,5-dihydro-oxazol-2-ylamine] | 0.002 |
| NC1=N[C@@H](c2cc(F)cc(F)c2F)CO1 [Example 118, (S)-4-(2,3,5-Trifluoro-phenyl)-4,5-dihydro-oxazol-2-ylamine] | 0.003 |
| Cc1cc(C2(C)COC(N)=N2)c(F)cc1Cl (racemic) [Example 274, (RS)-4-(4-Chloro-2-fluoro-5-methyl-phenyl)-4-methyl-4,5-dihydro-oxazol-2-ylamine] | 0.0011 |
| CCC(C[C@H]1COC(N)=N1)c1ccc(Cl)cc1 (stereo partly drawn) [Example 162, (S)-4-[2-(4-Chloro-phenyl)-butyl]-4,5-dihydro-oxazol-2-ylamine] | 0.0025 |
| NC1=N[C@@H](CCc2ccc(F)c(OC(F)(F)F)c2)CO1 [Example 146, (S)-4-[2-(4-Fluoro-3-trifluoromethoxy-phenyl)-ethyl]-4,5-dihydro-oxazol-2-ylamine] | 0.0041 |
| C[C@]1(CCc2ccc(F)cc2)COC(N)=N1 [Example 255, (S)-4-[2-(4-Fluoro-phenyl)-ethyl]-4-methyl-4,5-dihydro-oxazol-2-ylamine] | 0.0074 |
| NC1=N[C@@H](c2ccc(F)c(Cl)c2)CO1 [Example 172, (S)-4-(3-chloro-4-fluoro-phenyl)-4,5-dihydro-oxazol-2-ylamine] | 0.0019 |
